Data set [1] deals with HL-60 cell. Also on record: method as in PMID 6572492. As to conditions: cited from earlier work.
Data set [2] relates to VDR. As to conditions: literature values, cited from earlier work; for EC50: read-out: Transcriptional Activity EC50.
Data set [3] concerns VDR. Conditions: cited from earlier work; for IC50: literature values, read-out: VDR Affinity IC50.
For data set [4], the system named is VDR. As to conditions: antagonist activity for 1; read-out: Antagonistic Activity IC50; cited from earlier work.
Data set [5] concerns CYP24A1 expression in HaCaT cells. Further details: method as in PMID 17325131, PMID 24773565. Conditions: cited from earlier work.
Data set [6] has as its system CYP24A1 expression in intestine-derived HCT116 cells. Also on record: method as in PMID 17325131. As to conditions: cited from earlier work.
The target of data set [7] is T1, VDR with SRC-1 (Homo sapiens, UniProt P11473).
T1 sequence (P11473 1-427): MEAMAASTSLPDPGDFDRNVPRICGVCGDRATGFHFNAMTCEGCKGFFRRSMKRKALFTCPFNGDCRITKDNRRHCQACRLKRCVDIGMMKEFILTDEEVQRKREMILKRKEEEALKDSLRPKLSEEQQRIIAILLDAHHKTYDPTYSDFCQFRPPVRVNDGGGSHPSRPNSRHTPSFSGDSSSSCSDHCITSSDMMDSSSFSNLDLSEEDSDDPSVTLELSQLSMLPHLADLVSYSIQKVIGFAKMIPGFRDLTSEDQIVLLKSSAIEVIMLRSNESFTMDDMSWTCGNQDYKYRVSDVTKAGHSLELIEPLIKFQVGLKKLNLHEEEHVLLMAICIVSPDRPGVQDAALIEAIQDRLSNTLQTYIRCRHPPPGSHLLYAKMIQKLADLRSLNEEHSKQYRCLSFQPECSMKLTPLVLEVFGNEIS
T1 sequence (Q15788 595-771 partner limits assumed): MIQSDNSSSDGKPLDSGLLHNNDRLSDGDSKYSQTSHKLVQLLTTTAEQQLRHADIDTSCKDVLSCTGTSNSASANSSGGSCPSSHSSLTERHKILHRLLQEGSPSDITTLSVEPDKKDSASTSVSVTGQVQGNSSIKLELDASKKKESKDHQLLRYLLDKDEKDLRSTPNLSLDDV
The experiment in a line: Mammalian two-hybrid assay, VDR binding to SRC-1.

In data set [8] the target is T2, recombinant hVDR-LBD (Homo sapiens, UniProt P11473).
T2 sequence (P11473 140-427): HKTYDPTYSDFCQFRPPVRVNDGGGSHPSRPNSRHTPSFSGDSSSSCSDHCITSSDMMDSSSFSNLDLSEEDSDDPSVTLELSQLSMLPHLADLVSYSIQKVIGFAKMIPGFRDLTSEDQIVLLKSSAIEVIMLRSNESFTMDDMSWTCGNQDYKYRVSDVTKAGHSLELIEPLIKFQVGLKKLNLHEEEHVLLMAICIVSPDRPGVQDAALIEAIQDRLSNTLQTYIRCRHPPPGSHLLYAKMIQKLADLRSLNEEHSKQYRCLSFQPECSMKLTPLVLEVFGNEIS
Description: biochemical.

For data set [9], the system named is CYP24A1 expression in all cells (HEK293, SW480, U937, HaCaT, MG63, H292). Description: CYP24A1 expression (RT-qPCR), all cells tested. As to conditions: 100 nM, 24 h.
Data set [10] addresses T3, VDR with NCoR (Homo sapiens, UniProt P11473).
T3 sequence (P11473 1-427): T1 sequence (P11473 1-427)
The experiment in a line: Mammalian two-hybrid assay, dissociation of NCoR from the VDR.

In data set [11] the target is T4, hVDR (Homo sapiens, UniProt P11473).
T4 construct: expressed in transfected cells; host or cells: HEK293
T4 sequence (P11473 1-427): T1 sequence (P11473 1-427)
The experiment in a line: VDR transactivation luciferase reporter assay in HEK293 cells (SPP×3-tk-LUC). In kind it is cell-based. As to the method:
The transcriptional activity of the 25-alkylvitamin D analogs on the VDR was evaluated via a luciferase reporter assay in HEK293 human kidney cells transfected with an hVDR expression vector and a luciferase reporter with mouse osteopontin vitamin D response elements (VDREs, SPP×3-tk-LUC).
Transfections of 50 ng of TK-Spp × 3-LUC reporter plasmid, 10 ng of pCMX-β-galactosidase, and 15 ng of pCMX-VDR for each well of a 96-well plate were performed in HEK293 cells using the calcium phosphate coprecipitation method, as described previously. The mammalian two-hybrid assay for cofactor interaction with VDR used 50 ng of TK-MH100(UAS) × 3- LUC reporter plasmid, 10 ng of pCMX-β-galactosidase, 15 ng of pCMX-GAL4-RXRα, pCMX-GAL4-SRC1, or pCMX-GAL4-NCoR, and 15 ng of pCMX-VP16-VDR for each well of a 96-well plate. Luciferase and β-galactosidase activities were measured with a luminometer and a microplate reader (Molecular Devices, Sun Jose, CA, USA), respectively. Luciferase values were normalized to the internal β-galactosidase control.
HEK293 cells were co-transfected with TK-Spp × 3-LUC reporter plasmid and pCMX−VDR, and 8 h after transfection the cells were treated with several concentrations of each compound. After 24 h, the cells were harvested for assaying luciferase and β-galactosidase activity using a luminometer (Molecular Devices, Sunnyvale, CA, USA).

Data set [12] has as its target T2, recombinant hVDR-LBD.
In data set [13] the target is T5, VDR with RXRα (Homo sapiens, UniProt P11473).
T5 sequence (P11473 1-427): T1 sequence (P11473 1-427)
T5 sequence (P19793 1-462 partner): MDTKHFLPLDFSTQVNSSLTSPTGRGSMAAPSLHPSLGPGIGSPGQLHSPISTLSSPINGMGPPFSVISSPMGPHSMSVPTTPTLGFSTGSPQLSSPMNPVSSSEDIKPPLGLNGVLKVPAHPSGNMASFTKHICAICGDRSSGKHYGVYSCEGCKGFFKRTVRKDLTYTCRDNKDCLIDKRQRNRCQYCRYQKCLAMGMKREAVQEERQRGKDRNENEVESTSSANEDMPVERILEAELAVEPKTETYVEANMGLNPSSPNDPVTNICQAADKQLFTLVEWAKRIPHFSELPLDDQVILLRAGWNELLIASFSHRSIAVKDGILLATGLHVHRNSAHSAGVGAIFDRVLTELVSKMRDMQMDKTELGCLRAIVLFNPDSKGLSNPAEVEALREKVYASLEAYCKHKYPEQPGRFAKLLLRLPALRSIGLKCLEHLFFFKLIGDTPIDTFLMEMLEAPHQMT
The experiment in a line: Mammalian two-hybrid assay, interaction of the VDR with RXRα.

In data set [14] the test system is human dedifferentiated fat (DFAT) cells. The experiment in a line: Osteogenic differentiation assay: ALP activity in human DFAT cells. It is filed as cell-based. Conditions: osteogenic medium, 100 nM, 7 days, natural hormone 1 = 100%. As for the experimental part: Mature adipocytes from the adipose tissue of mammals such as humans and rodents can be dedifferentiated into pluripotent cells using ceiling culture. Dedifferentiated fat (DFAT) cells have potential applications in both regenerative medicine and injury healing, as well as mesenchymal stem cells, embryonic stem cells, and induced pluripotent stem cells. The osteogenic activity of vitamin D derivatives was assessed based on alkaline phosphatase (ALP) activity.
Samples of human subcutaneous adipose tissue were obtained from patients who underwent surgery in the Department of Pediatric Surgery at Nihon University Itabashi Hospital (Tokyo, Japan). The patients gave their written informed consent, and the Ethics Committee of Nihon University School of Medicine approved this study. We prepared dedifferentiated fat (DFAT) cells using the ceiling culture method, as described previously. Briefly, the adipose tissue (approximately 1 g) was cut into small pieces and digested with a 0.1% type I collagenase solution (Koken Co., Ltd., Tokyo, Japan). […] The cells that adhered to the upper surface of the flasks were cultured for conversion to dedifferentiated fat cells. […] Cells at passages 2–4 were used for differentiation experiments.
Cells were grown to confluency in 24-well plates and incubated for a week in DMEM containing 10% FBS, 100 nM dexamethasone (Merk), 10 mM β-glycerophosphate (Merk), and […] L-ascorbic acid-2-phosphate (Merk), with 100 nM of each compound. The induction medium was replaced on day 4. The alkaline phosphatase (ALP) activity in the cell lysates was determined on day 7 with a lab assay ALP kit (Fujifilm wako). The total protein content was determined with the BCA protein assay kit (Thermo Fisher Scientific). ALP levels were normalized to the total protein content.

In data set [15] the test system is VDR. The experiment in a line: VDR affinity, previously reported. It is filed as binding.
Details of data set [16]: method as in PMID 26613420. Conditions: versus natural hormone 1; cited from earlier work.

Where two headings read alike, the source gives them in different places.

The term EC50 denotes the concentration at which the effect is half-maximal. In general, IC50 refers to the concentration that inhibits the measured activity by half.

Take `C=C1/C(=C\C=C2/CCC[C@]3(C)[C@@H]([C@H](C)CCC(F)(F)C(C)(C)O)CC[C@@H]23)C[C@H](O)C[C@H]1O` [24F2-1,25(OH)2D3, 24, 24-difluoro-1α, 25-dihydroxyvitamin D3]: the “activity in HL-60 cell differentiation versus natural metabolite (1)” value in data set [1] was “four to seven times more activity than natural metabolite (1)”.

Turning to `C[C@H](/C=C/C[C@H](O)C12CC3CC(CC(C3)C1)C2)[C@H]1CC[C@H]2/C(=C/C=C3C[C@@H](O)C[C@H](O)C3)CCC[C@]12C` [AD47], the “Transcriptional Activity % Efficacy of That of 1” value in data set [2] is listed as 17%. Besides, the EC50 in [2] was 300 nM. In addition, the figures for the IC50 in data set [3] and in data set [4] were 5 nM and 400 nM, respectively. The “CYP24A1 expression compared to 1” value is 50% in data set [5] and 75% in data set [6].

Turning to `C=C1[C@H](O)CC(=C/C=C2\CCC[C@]3(C)[C@@H]([C@H](C)CC#C[C@@](O)(CCCC)C45CC6CC(CC(C6)C4)C5)CC[C@@H]23)C[C@H]1O` [ADKM5, (25R)-25-(1-Adamantyl)-1α,25-dihydroxy-2-methylidene-26-propyl-23-yne-19,27-dinorvitamin D3], the half-maximal effective concentration (EC50) in [7] worked out at 2.4 nM; in data set [11] (read-out: Transcriptional activity EC50), 2.63 nM; in [11] (this study, read-out: Transcriptional Activity EC50), 2.6 nM; in [13], 5.2 nM. Further, the IC50 in data set [8] was found to be 23.4 nM; in data set [10], 8.5 nM. In addition, the “CYP24A1 expression activity in all cells” value in data set [9] is on record as 10-50%. In data set [11] (1,25(OH)2D3 = 100%), this molecule had a Transcriptional activity efficacy of 83%. In data set [11] (this study, read-out: Transcriptional Activity % Efficacy of That of 1 (converted)), the Emax is 83%. Besides, in [12] (affinity for human VDR, within each 25-epimer pair), the “fold lower activity of rapidly eluting epimer than the other 25-epimer” value is reported as 5–11 fold. Also, the “VDR affinity, % of that of 1,25(OH)2D3” value in [12] (relative to 1,25(OH)2D3) is listed as 2%. Also, the ALP activity in [14] is recorded as 19%.

For the molecule `C=C1[C@H](O)CC(=C/C=C2\CCC[C@]3(C)[C@@H]([C@H](C)/C=C/C[C@H](O)C45CC6CC(CC(C6)C4)C5)CC[C@@H]23)C[C@H]1O` [ADNY93], in data set [15] (effect of exocyclic methylene at C-2, values of Table 1), the “VDR affinity, times that of AD47 (2)” value was 50 times. In [2], the “Transcriptional Activity % Efficacy of That of 1” value is given as 17% and the EC50 was 1 nM. Moreover, in [3], the IC50 is 0.1 nM. Also, in [4], the IC50 was 1.2 nM.

For `C=C1[C@H](O)CC(=C/C=C2\CCC[C@]3(C)[C@@H]([C@H](C)CC#C[C@@H](O)C45CC6CC(CC(C6)C4)C5)CC[C@@H]23)C[C@H]1O` [ADTK1], the “Transcriptional Activity % Efficacy of That of 1” value in data set [2] was 81%. Besides, the IC50 in data set [3] is 0.5 nM. In [3] (relative to 1,25(OH)2D3 (1)), the “VDR affinity, % of that of 1” value is listed as 90%. Further, in [5], the “CYP24A1 expression compared to 1” value is given as “less than 50%”. Also, the ALP activity in data set [14] worked out at 45.6%.

As for `C=C1[C@H](O)CC(=C/C=C2\CCC[C@]3(C)[C@@H]([C@H](C)CC#C[C@H](O)C45CC6CC(CC(C6)C4)C5)CC[C@@H]23)C[C@H]1O` [ADTK2], the “times less potent than 5b (25S)” value in data set [15] (25R versus 25S epimer, values of ref 42) was 24 times. Also, in data set [2], the “Transcriptional Activity % Efficacy of That of 1” value is listed as over 38% and the EC50 is 6.6 nM. Besides, the IC50 in data set [3] is 12 nM.

Regarding `C=C1[C@H](O)CC(=C/C=C2\CCC[C@]3(C)[C@@H](C#CC#C[C@@H](O)C45CC6CC(CC(C6)C4)C5)CC[C@@H]23)C[C@H]1O` [ADYW2], in data set [2], the “Transcriptional Activity % Efficacy of That of 1” value is 86% and the EC50 is 1.5 nM. In addition, in [3], the IC50 is 5 nM. Moreover, in [16], the “stability in MG63 cells” value is listed as “more stable than natural hormone 1”.

Values taken from PMC10377034, “Syntheses of 25-Adamantyl-25-alkyl-2-methylidene-1α,25-dihydroxyvitamin D3 Derivatives with Structure–Function Studies of Antagonistic and Agonistic Active Vitamin D Analogs” (Biomolecules, 2023).
